Measured values as given in US12370143B2, “Compound or salt thereof and lipid particles” (FUJIFILM Corporation, priority 2018, dated 2025).

Assays:
[1] = test system: DMS273 cells constantly expressing Luc; assay: Target reporter protein (Luc) knockdown in cell, reporter protein assay; type: cell-based; details: Homo sapiens, DMS-273; Luc2-siRNA lipid particles using the compound; siRNA 0.1 to 100 nmol/L; concentration at which Luc expression is knocked down to 50%; read-out: IC50
How it was run: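 Nucleic acid lipid particles added at final 0.1 to 100 nmol/L to DMS273 human SCLC cells stably expressing Luc2, 24 hr exposure then 24 hr further culture after medium change. Luc quantified by Steady Glo luminescence after viable cell count; knockdown efficiency calculated and IC50 taken as concentration giving 50% Luc reduction.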

[2] = Particle size of nucleic acid lipid particles (FVII-siRNA); type: physicochemical
Procedure: The compounds described in Table 2, L-α-distearoylphosphatidylcholine (trade name: COATSOME® MC-8080; NOF corporation), cholesterol (trade name: Choesterol HP; NIPPON FINE CHEMICAL CO., LTD.), and 1,2-dimyristoyl-rac-glycero-3-(methylpolyoxyethylene 2000) (hereinafter, called DMG-PEG2000) (trade name: SUNBRIGHT® GM-020; NOF corporation) were dissolved in ethanol at a molar ratio of 50/10/38.5/1.5 such that the total lipid concentration became 20 mmol/L, thereby obtaining an oil phase.
An aqueous nucleic acid solution obtained by dissolving 5 mg of Luc2-siRNA having the sequence described in Biomacromolecules (2013) 14, p. 3905 in 1 mL of sterile water was diluted with 10 mmol/L acetate buffer having a pH 4 such that the nucleic acid concentration became 19.7 μmol/L, thereby obtaining a water phase. Then, the water phase and the oil phase were mixed together by a micromixer (see JP5288254B) using a syringe pump such that the volume ratio of water phase:oil phase became 3:1 (final ratio of siRNA/lipid=339 (mol/mol)), and the mixed solution was diluted 2× with PBS, thereby obtaining a dispersion liquid of nucleic acid lipid particles. The dispersion liquid was dialyzed (Slide-A-Lyzer G2, MWCO: 10 kD, Thermo Fisher Scientific) using a phosphate buffered saline such that ethanol was removed, thereby obtaining nucleic acid lipid particles.
The particle size of the nucleic acid lipid particles was measured by the same method as that in <Preparation of lipid particles>.
(§1) The Factor VII (FVII) protein was measured according to the method described in Nature Biotechnology (2010) 28, 172-176. C57BL6/J mice were randomly grouped (n=3). A dispersion liquid of nucleic acid lipid particles was prepared by the same method as that in <Preparation of nucleic acid lipid particles>, except that FVII-siRNA having the sequence described in Molecular Therapy (2009) 17, p. 878 was used instead of Luc-siRNA. The dispersion liquid was administered to the caudal vein of the mice at a dosage of 0.1 mg/kg. For comparison, PBS at the same volume was administered to the caudal vein of the mice. Twenty four hours after the administration, blood was collected from the caudal vena cava, thereby obtaining plasma. The amount of FVII protein was quantified using the obtained plasma and a Biophen FVII assay kit (Aniara).

[3] = test system: Factor VII (FVII) protein; assay: Measurement of Factor VII (FVII) protein in mouse plasma after FVII-siRNA lipid particles; type: in vivo, C57BL6/J mice; details: 0.1 mg/kg caudal vein, plasma 24 hours after administration, PBS group = 100%
How it was run: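 C57BL6/J mice (n=3) received FVII-siRNA nucleic acid lipid particles at 0.1 mg/kg into the tail vein; controls got PBS. Each value is the percentage of the PBS-group FVII level.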

[4] = Nucleic acid encapsulation rate of nucleic acid lipid particles (FVII-siRNA); type: physicochemical
Procedure: A 3 mol/L aqueous sodium acetate solution (30 μL) and 9 μL of glycogen were added to 60 μL of the lipid particles retaining nucleic acids, and then 1.5 mL of ethanol was added thereto such that only the nucleic acids were precipitated while the lipid was dissolved. Then, the supernatant was removed by centrifugation. After the precipitates were air-dried for 15 minutes or longer, water was added thereto such that the precipitates were redissolved, and the concentration thereof was measured using Nanodrop NF1000 (Thermo Fisher Scientific), thereby quantifying the total nucleic acid concentration.
The nucleic acid concentration was quantified using a Quant-iT RiboGreen RNA Assay Kit (Thermo Fisher Scientific) according to the protocol. First, a 20×TE buffer included in the above kit was diluted with water, thereby obtaining a 1×TE buffer. TE represents Tris/EDTA (ethylenediaminetetraacetic acid). In order to quantify only the nucleic acid in the outer water phase, the dispersion liquid of lipid particles retaining nucleic acids was diluted 10,000× with the 1×TE buffer.
The 10,000× diluted dispersion liquid of lipid particles (100 μL) was put in a 96-well plate, then 100 μL of a RiboGreen reagent (reagent included in the Quanti-iT Ribogreen RNA Assay Kit described above) diluted 2000× with the 1×TE buffer was added to a sample, and fluorescence (excitation wavelength: 485 nm, fluorescence wavelength: 535 nm) was measured using a plate reader Infinit EF200 (TECAN), thereby quantifying the nucleic acid concentration in the outer water phase.
By using the total nucleic acid concentration obtained through the above steps and the quantified nucleic acid concentration in the outer water phase, the nucleic acid encapsulation rate of the nucleic acid lipid particles was calculated according to the following Equation. Nucleic acid encapsulation rate (%)=(total nucleic acid concentration−nucleic acid concentration in outer water phase)/total nucleic acid concentration×100 The results are shown in Table 2.
as §1

[5] = Encapsulation rate of siRNA in nucleic acid lipid particles (Luc2-siRNA); type: physicochemical; details: compound/DSPC/cholesterol/DMG-PEG2000 50/10/38.5/1.5
How it was run: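 Encapsulation rate was calculated as (total − outer-phase siRNA)/total ×100. Total siRNA was quantified spectrophotometrically after lipid-dissolving ethanol precipitation, and unencapsulated siRNA by RiboGreen in TE (ex 485/em 535 nm). The particles were test lipid/DSPC/cholesterol/DMG-PEG2000 at 50/10/38.5/1.5, formed by microfluidic mixing with Luc2-siRNA at pH 4 and dialyzed against PBS.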

[6] = Particle size of nucleic acid lipid particles (Luc2-siRNA); type: physicochemical; details: compound/DSPC/cholesterol/DMG-PEG2000 50/10/38.5/1.5
How it was run: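 Particle size was read by ELS-Z2 light scattering on nucleic acid lipid particles after dialysis against PBS. These were made by micromixing Luc2-siRNA (19.7 μmol/L, pH 4 acetate) with ethanolic lipids (test lipid/DSPC/cholesterol/DMG-PEG2000 50/10/38.5/1.5, 20 mmol/L) at 3:1 water:oil, siRNA/lipid 339 mol/mol.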

| SMILES | IC50 [1] | Particle size (nm) [2] | Relative amount of FVII protein (%) [3] | Nucleic acid encapsulation rate [4] | Nucleic acid encapsulation rate [5] | Particle size (nm) [6] |
| --- | --- | --- | --- | --- | --- | --- |
| CCCCCCCCCCC(CCCCCCCC)COC(=O)CCCC(CCCCCC)OC(=O)OCCN(CCN(CC)CC)C(C)C (stereo not drawn) [Example 112, 2-Octyldodecyl 3-ethyl-12-hexyl-6-isopropyl-10-oxo-9,11-dioxa-3,6-diazahexadecan-16-oate] | 18 nM | 74.2 nm | 3% | 100% | 79% | 68.6 nm |
| CCCCC/C=C\C/C=C\CCCCCCCCC(CCCCCCCC/C=C\C/C=C\CCCCC)OC(=O)OCCN(CCC)CCN(C)C(C)C [Example 64] | 5 nM | 65.7 nm | 10% | 86% | 75% | 61.5 nm |
| CCCCCCCCCC(=O)OCCN(CCOC(=O)OC(CCCCCC)CCCCCCCCC(=O)OCC(CCCC)CCCCCC)CCN(CC)CC (stereo not drawn) [Example 87, 2-Butyloctyl 6-(2-(decanoyloxy)ethyl)-3-ethyl-12-hexyl-10-oxo-9,11-dioxa-3,6-diazahenicosan-21-oate] | 34 nM | 69.3 nm | 3% | 87% | 79% | 69.2 nm |
| CCCCCCCCCCCCC(CCCCCCCCC(=O)OCC(CCCC)CCCCCC)OC(=O)OCCN(CC)CCN(CC)CC (stereo not drawn) [Example 50, 2-Butyloctyl 12-dodecyl-3,6-diethyl-10-oxo-9,11-dioxa-3,6-diazahenicosan-21-oate] | 13 nM | 65.4 nm | 11% | 84% | 79% | 65.6 nm |
| CCCCCCCCCCC(CCCCCCCCC(=O)OCC(CCCC)CCCCCC)OC(=O)OCCN(CCN(CC)CC)C(C)C (stereo not drawn) [Example 69, 2-Butyloctyl 12-decyl-3-ethyl-6-isopropyl-10-oxo-9,11-dioxa-3,6-diazahenicosan-21-oate] | 28 nM | 86.8 nm | 6% | 97% | 98% | 67.6 nm |
| CCCCCC/C=C\CCCCCCCC(=O)OCCCCCCC(CCCCCCOC(=O)CCCCCCC/C=C\CCCCCC)OC(=O)OCCN(CC)CCN(CC)CC [Example 46, 7-(((2-((2-(Diethylamino)ethyl)(ethyl)amino)ethoxy)carbonyl)oxy)tridecane-1,13-diyl(9Z,9′Z)-bis(hexadec-9-enoate)] | 17 nM | 68.4 nm | 18% | 84% | 80% | 71 nm |
| CCCCCCCCC(CCCCCC)COC(=O)CCCCCCCCC(CCCCCC)OC(=O)OCCN(CCOC(=O)CCCCC)CCN(CC)CC (stereo not drawn) [Example 100, 2-Hexyldecyl 3-ethyl-6-(2-(hexanoyloxy)ethyl)-12-hexyl-10-oxo-9,11-dioxa-3,6-diazahenicosan-21-oate] | 26 nM | 85.1 nm | 2% | 80% | 82% | 76.7 nm |
| CCCCC/C=C\C/C=C\CCCCCCCCC(CCCCCCCC/C=C\C/C=C\CCCCC)OC(=O)OCCN(CC)CCN(CC)CC [Example 30, 2-((2-(Diethylamino)ethyl)(ethyl)amino)ethyl((6Z,9Z,28Z,31Z)-heptatriaconta-6,9,28,31-tetraen-19-yl)carbonate] | 24 nM | 73.6 nm | 5% | 88% | 78% | 69.8 nm |
| CCCCC/C=C\C/C=C\CCCCCCCCC(CCCCCCCC/C=C\C/C=C\CCCCC)OC(=O)OCCN(CCN(CC)CC)Cc1ccccc1 [Example 51, 2-(Benzyl(2-(diethylamino)ethyl)amino)ethyl((6Z,9Z,28Z,31Z)-heptatriaconta-6,9,28,31-tetraen-19-yl)carbonate] | 37 nM | 71 nm | 19% | 84% | 76% | 69 nm |
| CCCCCCCCCC(CCCCCCCCC(=O)OCC(CCCC)CCCCCC)OC(=O)OCCN(CC)CCN(CC)CC (stereo not drawn) [Example 75, 2-Butyloctyl 3,6-diethyl-12-nonyl-10-oxo-9,11-dioxa-3,6-diazahenicosan-21-oate] | 8 nM | 79.1 nm | 17% | 83% | 76% | 65.4 nm |
| CCCCCCCCCC(=O)OCCN(CCOC(=O)OC(CCCCCC)CCCC(=O)OCC(CCCC)CCCCCC)CCN(CC)CC (stereo not drawn) [Example 107, 2-Butyloctyl 6-(2-(decanoyloxy)ethyl)-3-ethyl-12-hexyl-10-oxo-9,11-dioxa-3,6-diazahexadecan-16-oate] | 23 nM | 70.6 nm | 1% | 83% | 78% | 64.8 nm |
| CCCCCCCC/C=C\CCCCCCCC(=O)OCCN(CCCN(CC)CC)CCOC(=O)OC(CCCCCC)CCCCCCCCC(=O)OCC(CCCC)CCCCCC (stereo not drawn) [Example 93, 2-Butyloctyl 3-ethyl-13-hexyl-7-(2-(oleoyloxy)ethyl)-11-oxo-10,12-dioxa-3,7-diazadocosan-22-oate] | 22 nM | 67.8 nm | 7% | 73% | 70% | 70.4 nm |
